According to patent publication US4374147A, “13-Oxo-monic acid esters useful as antibacterial and antimycoplasmal agents” (Beecham Group Limited, priority 1980, dated 1983):
≈ marks a conversion by molar mass, not a printed value.

Columns and labels:
[1] = system: Gram-positive and Gram-negative organisms; details: disclosed in earlier patents; cited from earlier work
E.coli NCTC 10418 [2] = assay: MIC by serial dilution in nutrient agar (human bacteria, Table 1); type: cell-based; details: Escherichia coli, NCTC10418, 5% "chocolated" horse blood
E.coli ESS = assay: as above; type: cell-based; details: Escherichia coli, 5% "chocolated" horse blood
P. mirabilis 889 = assay: as above; type: cell-based; details: Proteus mirabilis, 5% "chocolated" horse blood
K. aerogenes A = assay: as above; type: cell-based; details: Klebsiella aerogenes, 5% "chocolated" horse blood
Ps. aeruginosa 10662 = assay: as above; type: cell-based; details: Pseudomonas aeruginosa, 5% "chocolated" horse blood
[3] = system: Pasteurella multocida 1633; assay: as above; type: cell-based; details: Pasteurella multocida 1633; nutrient agar, 5% "chocolated" horse blood; read-out: MIC
[4] = system: Haemophilus influenzae Q1; assay: as above; type: cell-based; details: Haemophilus influenzae Q1; nutrient agar, 5% "chocolated" horse blood; read-out: MIC
[5] = system: Haemophilus influenzae Wy21; assay: as above; type: cell-based; details: 5% "chocolated" horse blood
[6] = system: Neisseria catarrhalis 1502; assay: as above; type: cell-based; details: 5% "chocolated" horse blood
Bacillus subtilis 6633 = assay: as above; type: cell-based; details: 5% "chocolated" horse blood
Staph.aureus Oxford [7] = assay: as above; type: cell-based; details: Staphylococcus aureus
Staph.aureus Russell = assay: as above; type: cell-based; details: Staphylococcus aureus
Staph. aureus W2827 = assay: MIC by serial dilution in nutrient agar (human bacteria, Table 1, footnote b); type: cell-based; details: Staphylococcus aureus, Staph. aureus W2827 (footnote b, in line Staph.aureus 1517), 5% "chocolated" horse blood
Strep.faecalis I = assay: MIC by serial dilution in nutrient agar (human bacteria, Table 1); type: cell-based; details: Enterococcus faecalis, 5% "chocolated" horse blood
Strep.pyogenes A 64/848 = assay: as above; type: cell-based; details: Streptococcus pyogenes, A64/848, 5% "chocolated" horse blood
Strep.pyogenes B 2788 = assay: as above; type: cell-based; details: Streptococcus pyogenes, B2788, 5% "chocolated" horse blood
Strep.pyogenes C 2761 = assay: as above; type: cell-based; details: Streptococcus pyogenes, C2761, 5% "chocolated" horse blood
Strep.pneumoniae CN33 = assay: as above; type: cell-based; details: Streptococcus pneumoniae, 5% "chocolated" horse blood
Bord.bronchiseptica BO8 = assay: MIC by agar dilution (veterinary bacteria, Table 2); type: cell-based; details: Bordetella bronchiseptica, diagnostic sensitivity test agar, 24 hours, 37° C.
Procedure: (§1) The MIC values were determined by agar dilution using diagnostic sensitivity test agar (Oxoid) using a multipoint inoculator delivering 0.001 ml of an inoculum adjusted to give 10^7 -10^8 organisms per ml and read after 24 hours incubation at 37° C.

Bord.bronchiseptica BO9 = assay: as above; type: cell-based; details: Bordetella bronchiseptica, diagnostic sensitivity test agar, 24 hours, 37° C.
Procedure: as §1

[8] = system: Corynebacterium pyogenes CY1; assay: as above; type: cell-based; details: Trueperella pyogenes, diagnostic sensitivity test agar, 24 hours, 37° C.
Procedure: as §1

E.coli E1 = assay: as above; type: cell-based; details: Escherichia coli, diagnostic sensitivity test agar, 24 hours, 37° C.
Procedure: as §1

E.coli NCTC 10418 [9] = assay: as above; type: cell-based; details: Escherichia coli, NCTC10418, diagnostic sensitivity test agar, 24 hours, 37° C.
Procedure: as §1

[10] = system: Erysipelothrix rhusiopathiae NCTC 8163; assay: as above; type: cell-based; details: NCTC8163, diagnostic sensitivity test agar, 24 hours, 37° C.
Procedure: as §1

Past.haemolytica PA5 = assay: as above; type: cell-based; details: Mannheimia haemolytica, diagnostic sensitivity test agar, 24 hours, 37° C.
Procedure: as §1

Past.multocida PA1 = assay: as above; type: cell-based; details: Pasteurella multocida, diagnostic sensitivity test agar, 24 hours, 37° C.
Procedure: as §1

Past.multocida PA2 = assay: as above; type: cell-based; details: Pasteurella multocida, diagnostic sensitivity test agar, 24 hours, 37° C.
Procedure: as §1

S.dublin S7 = assay: as above; type: cell-based; details: Salmonella enterica, diagnostic sensitivity test agar, 24 hours, 37° C.
Procedure: as §1

S.typhimurium S18 = assay: as above; type: cell-based; details: Salmonella enterica, diagnostic sensitivity test agar, 24 hours, 37° C.
Procedure: as §1

[11] = system: Staph.aureus 152 (pen sens); assay: as above; type: cell-based; details: Staphylococcus aureus, diagnostic sensitivity test agar, 24 hours, 37° C.
Procedure: as §1

[12] = system: Staph.aureus B4 (pen resis); assay: as above; type: cell-based; details: Staphylococcus aureus, diagnostic sensitivity test agar, 24 hours, 37° C.
Procedure: as §1

Staph.aureus Oxford [13] = assay: as above; type: cell-based; details: Staphylococcus aureus, diagnostic sensitivity test agar, 24 hours, 37° C.
Procedure: as §1

Strep.agalactiae SPA1 = assay: as above; type: cell-based; details: Streptococcus agalactiae, diagnostic sensitivity test agar, 24 hours, 37° C.
Procedure: as §1

Strep.dysgalactiae SPD1 = assay: as above; type: cell-based; details: Streptococcus dysgalactiae, diagnostic sensitivity test agar, 24 hours, 37° C.
Procedure: as §1

[14] = system: Strep.suis (group D) SPS11; assay: as above; type: cell-based; details: Streptococcus suis, diagnostic sensitivity test agar, 24 hours, 37° C.
Procedure: as §1

Strep.uberis SPU1 = assay: as above; type: cell-based; details: Streptococcus uberis, diagnostic sensitivity test agar, 24 hours, 37° C.
Procedure: as §1

M.bovis NCTC 10131 = assay: Anti-mycoplasmal MIC in Friis broth solidified with agarose (Table 3); type: cell-based; details: NCTC10131, 144 h, read-out: in vitro MIC
Procedure: (§2) ^+ Determined in Friis broth solidified with 0.9% agarose. The
(§3) inoculum was 10^3 to 10^5 C.F.U. MIC's were recorded after 6 days

M.dispar NCTC 10125 = assay: as above; type: cell-based; details: 144 h, 6 days, 37° C., read-out: in vitro MIC
Procedure: as §2, §3

M.hyorhinis ATCC 23234 = assay: as above; type: cell-based; details: Mesomycoplasma hyorhinis, ATCC23234, 144 h, 6 days, 37° C., read-out: in vitro MIC
Procedure: as §2, §3

M.hyosynoviae ATCC 25591 = assay: as above; type: cell-based; details: 144 h, 6 days, 37° C., read-out: in vitro MIC
Procedure: as §2, §3

[15] = system: M.pneumoniae (Mac) ATCC 15492; assay: as above; type: cell-based; details: Mycoplasmoides pneumoniae, ATCC15492, 144 h, 6 days, 37° C., read-out: in vitro MIC
Procedure: as §2, §3

[16] = system: M.suipneumoniae J2206/183b; assay: as above; type: cell-based; details: Mesomycoplasma hyopneumoniae, 144 h, 6 days, 37° C., read-out: in vitro MIC
Procedure: as §2, §3

M.suipneumoniae Str.11 = assay: as above; type: cell-based; details: Mesomycoplasma hyopneumoniae, 144 h, 6 days, 37° C., read-out: in vitro MIC
Procedure: as §2, §3

CC(=CC(=O)OCCCCCCCCC(=O)O)CC1OCC(CC2OC2C(C)C(C)O)C(O)C1O (centres unmarked) [Pseudomonic acid]
antibacterial activity [1]: having antibacterial activity

CCOC(=O)C=C(C)CC1OCC(CC2OC2C(C)C(C)=O)C(O)C1O (centres unmarked) [Example 5, Ethyl 4-(5-(2,3-epoxy-4-methylhexan-5-onyl)-3,4-dihydroxytetrahydropyran-2-yl)-3-methylbut-2-enoate]
MIC (E.coli NCTC 10418 [2]): > 100 µg/mL | MIC (E.coli ESS): 10 µg/mL (≈ 27 µM) | MIC (P. mirabilis 889): 100 µg/mL (≈ 270 µM) | MIC (K. aerogenes A): > 100 µg/mL | MIC (Ps. aeruginosa 10662): > 100 µg/mL | MIC [3]: 10 µg/mL (≈ 27 µM) | MIC [4]: 1 µg/mL (≈ 2.7 µM) | MIC [5]: 1 µg/mL (≈ 2.7 µM) | MIC [6]: 2.5 µg/mL (≈ 6.75 µM) | MIC (Bacillus subtilis 6633): 10 µg/mL (≈ 27 µM) | MIC (Staph.aureus Oxford [7]): 5 µg/mL (≈ 13.5 µM) | MIC (Staph.aureus Russell): 5 µg/mL (≈ 13.5 µM) | MIC (Staph. aureus W2827): 5 µg/mL (≈ 13.5 µM) | MIC (Strep.faecalis I): > 100 µg/mL | MIC (Strep.pyogenes A 64/848): 50 µg/mL (≈ 135 µM) | MIC (Strep.pyogenes B 2788): 50 µg/mL (≈ 135 µM) | MIC (Strep.pyogenes C 2761): 100 µg/mL (≈ 270 µM) | MIC (Strep.pneumoniae CN33): 10 µg/mL (≈ 27 µM) | MIC (Bord.bronchiseptica BO8): > 80 µg/mL | MIC (Bord.bronchiseptica BO9): 80 µg/mL (≈ 216 µM) | MIC [8]: > 80 µg/mL | MIC (E.coli E1): > 80 µg/mL | MIC (E.coli NCTC 10418 [9]): > 80 µg/mL | MIC [10]: > 80 µg/mL | MIC (Past.haemolytica PA5): 10 µg/mL (≈ 27 µM) | MIC (Past.multocida PA1): 2.5 µg/mL (≈ 6.75 µM) | MIC (Past.multocida PA2): 0.625 µg/mL (≈ 1.69 µM) | MIC (S.dublin S7): > 80 µg/mL | MIC (S.typhimurium S18): > 80 µg/mL | MIC [11]: 0.625 µg/mL (≈ 1.69 µM) | MIC [12]: 0.625 µg/mL (≈ 1.69 µM) | MIC (Staph.aureus Oxford [13]): 0.625 µg/mL (≈ 1.69 µM) | MIC (Strep.agalactiae SPA1): 20 µg/mL (≈ 54 µM) | MIC (Strep.dysgalactiae SPD1): 20 µg/mL (≈ 54 µM) | MIC [14]: > 80 µg/mL | MIC (Strep.uberis SPU1): 2.5 µg/mL (≈ 6.75 µM) | MIC (M.bovis NCTC 10131): 0.1 µg/mL (≈ 0.27 µM) | MIC (M.dispar NCTC 10125): 1 µg/mL (≈ 2.7 µM) | MIC (M.hyorhinis ATCC 23234): 5 µg/mL (≈ 13.5 µM) | MIC (M.hyosynoviae ATCC 25591): 2.5 µg/mL (≈ 6.75 µM) | MIC [15]: > 10 µg/mL | MIC [16]: 5 µg/mL (≈ 13.5 µM) | MIC (M.suipneumoniae Str.11): 2.5 µg/mL (≈ 6.75 µM)
